According to the supplement of paper PMC13380429:
± gives the standard deviation of the averaged measurements.

Columns and labels:
Conditions in all cases: 72 h
U2OS [1] = experiment: drug sensitivity score (DSS) for viability; higher = more toxic; extreme values may be limits of the assay
Calu-3 [2] = experiment: as above
Vero E6 [3] = experiment: as above
HepG2 [4] = experiment: as above
Caco-2 [5] = experiment: as above
U2OS [6] = experiment: relative viability EC50 (midpoint between 100% and the lowest measured viability); higher = less toxic
Caco-2 [7] = experiment: as above
Vero E6 [8] = experiment: as above
HepG2 [9] = experiment: as above
U2OS [10] = experiment: cell viability relative to DMSO; higher = less toxic
Caco-2 [11] = experiment: as above
Vero E6 [12] = experiment: as above
HepG2 [13] = experiment: as above
Calu-3 [14] = experiment: as above

| SMILES | drug sensitivity score (U2OS [1]) | drug sensitivity score (Calu-3 [2]) | drug sensitivity score (Vero E6 [3]) | drug sensitivity score (HepG2 [4]) | drug sensitivity score (Caco-2 [5]) | relative viability EC50 (U2OS [6]) [nM] | relative viability EC50 (Caco-2 [7]) [nM] | relative viability EC50 (Vero E6 [8]) [nM] | relative viability EC50 (HepG2 [9]) [nM] | cell viability (U2OS [10]; 1 nM) [%] | cell viability (U2OS [10]; 10 nM) [%] | cell viability (U2OS [10]; 100 nM) [%] | cell viability (U2OS [10]; 1000 nM) [%] | cell viability (U2OS [10]; 10000 nM) [%] | cell viability (Caco-2 [11]; 1 nM) [%] | cell viability (Caco-2 [11]; 10 nM) [%] | cell viability (Caco-2 [11]; 100 nM) [%] | cell viability (Caco-2 [11]; 1000 nM) [%] | cell viability (Caco-2 [11]; 10000 nM) [%] | cell viability (Vero E6 [12]; 1 nM) [%] | cell viability (Vero E6 [12]; 10 nM) [%] | cell viability (Vero E6 [12]; 100 nM) [%] | cell viability (Vero E6 [12]; 1000 nM) [%] | cell viability (Vero E6 [12]; 10000 nM) [%] | cell viability (HepG2 [13]; 1 nM) [%] | cell viability (HepG2 [13]; 10 nM) [%] | cell viability (HepG2 [13]; 100 nM) [%] | cell viability (HepG2 [13]; 1000 nM) [%] | cell viability (HepG2 [13]; 10000 nM) [%] | cell viability (Calu-3 [14]; 1 nM) [%] | cell viability (Calu-3 [14]; 10 nM) [%] | cell viability (Calu-3 [14]; 100 nM) [%] | cell viability (Calu-3 [14]; 1000 nM) [%] | cell viability (Calu-3 [14]; 10000 nM) [%] |
| --- | --- | --- | --- | --- | --- | --- | --- | --- | --- | --- | --- | --- | --- | --- | --- | --- | --- | --- | --- | --- | --- | --- | --- | --- | --- | --- | --- | --- | --- | --- | --- | --- | --- | --- |
| C#C[C@]1(O)CC[C@H]2[C@@H]3CCC4=Cc5oncc5C[C@]4(C)[C@H]3CC[C@@]21C [danazol] | 0 | 0 | 0 | 0 |  |  |  |  |  |  |  |  |  |  |  |  |  |  |  |  |  |  |  |  |  |  |  |  |  |  |  |  |  |  |
| O=C(O)CCC(=O)C(=O)O [2-oxoglutaric-acid] | 0 |  | 0 | 0 | 0 | > 10000 | > 10000 | > 10000 | > 10000 | 98.5 | 99.5 | 95.2 | 98.7 | 99.3 | 95.3 | 97.7 | 95 | 94.2 | 91.5 | 97.8 | 104 | 98.3 | 104 | 102 | 97.9 | 94.3 | 91.4 | 98.8 | 105 |  |  |  |  |  |
| COc1ccc(S(=O)(=O)Nc2cccnc2Nc2ccc(O)cc2)cc1 [ABT-751] | 9.2 | 6.2 | 14.2 | 10 | 10.1 | 884 | 260 | 248 | 522 | 103 | 99.4 | 104 | 57.5 | 26.4 | 100 | 89.6 | 86.3 | 53.7 | 42.4 | 102 | 98.9 | 93.3 | 29.8 | 27.9 | 101 | 108 | 105 | 45.1 | 35.2 | 108 | 87.3 | 94 | 69.4 | 55.8 |
| C/C(=N\Nc1nnc2c(n1)[nH]c1c(C)cccc12)c1ccccn1 [VLX600] | 12.2 ± 1.3 |  | 14.6 ± 2.2 | 14.85 ± 0.071 | 14.8 ± 0.35 | 418 | 320 | 525 | 319 | 100 ± 3.2 | 99.6 ± 9.3 | 98.9 | 34.3 ± 6.7 | 27 ± 0.99 | 95.5 ± 6 | 101 ± 1.6 | 98.1 ± 4.1 | 20.2 ± 5.8 | 21 ± 2.1 | 101 ± 6 | 100.5 ± 0.49 | 104 ± 2.5 | 21.6 ± 15 | 4.95 ± 1.2 | 102 ± 2.3 | 107 ± 10 | 103 ± 11 | 17.9 ± 6 | 23.6 ± 1.6 |  |  |  |  |  |
| C[N+](C)(C)NCCC(=O)O [meldonium] | 0 |  | 0 | 0 | 0 | > 10000 | > 10000 | > 10000 | > 10000 | 102 | 99.1 | 104 | 97.7 | 101 | 96.1 | 101 | 102 | 92 | 102 | 99.1 | 105 | 95.5 | 97 | 101 | 97.6 | 96.1 | 98.4 | 107 | 101 |  |  |  |  |  |
| Cc1cc(C)cc(C(=O)NOCCCCCC(=O)NO)c1 [LMK-235] | 11.6 |  | 12.7 | 15.1 | 10.4 | 884 | 1220 | 777 | 441 | 95.9 | 91.3 | 90.4 | 49.3 | 1.9 | 107 | 86.9 | 96.4 | 60.3 | 0.9 | 95.3 | 102 | 96.1 | 39.8 | -0.1 | 95.1 | 93.3 | 79.4 | 34.4 | 0.3 |  |  |  |  |  |
| Cc1cc(CC(C)CC(C)(C)C)n(O)c(=O)c1 (centres undefined) [piroctone-olamine] | 4.2 | 3.4 | 0 | 0 | 1.8 |  |  | > 10000 | > 10000 | 95.1 | 93.9 | 100 | 88 | 54.8 | 100 | 96.3 | 103 | 97.6 | 68 | 102 | 96.1 | 104 | 95.5 | 108 | 97.6 | 102 | 102 | 110 | 93.3 | 98 | 97.1 | 102 | 80 | 72.4 |
| COc1cc(/C=C/c2ccc(OC)cc2OC)cc(OC)c1 [TMS] | 2.4 | 1.4 | 5 | 4.3 | 4.2 |  |  | 2080 | 1940 | 98.8 | 107 | 94.1 | 101 | 52.5 | 86.4 | 97.6 | 81.6 | 92.4 | 55.5 | 93.6 | 95.5 | 94.7 | 91.3 | 35 | 98.7 | 94.7 | 96.1 | 91.5 | 46.2 | 97 | 99.6 | 92.6 | 106 | 62.8 |
